Data set [1] in a line: Induction of GS-CYN monoadduct formation by HPLC-MS analysis. The data set is classed as physicochemical.
Data set [2] deals with Trypanosoma brucei rhodesiense. As to the kind of experiment: Induction of CYN-thiol adduct formation in Trypanosoma brucei rhodesiense assessed as extracellular CYN level at 50 uM after 30 mins by UHPLC-MS/MS analysis. The conditions noted are these: in vivo, 0.5 h. The data set is classed as organism-based.
Data set [3] deals with Trypanosoma brucei. As to the kind of experiment: Inhibition of trypanothione synthatase in Trypanosoma brucei using GSH as substrate at 200 uM.
Data set [4] concerns Trypanosoma brucei rhodesiense. Briefly: Reduction of GSH level in Trypanosoma brucei rhodesiense at 50 uM after 40 mins by UHPLC-MS/MS analysis. Type of data set: functional, organism-based.
The subject of data set [5] is Trypanosoma brucei rhodesiense. As to the kind of experiment: Induction of CYN-thiol adduct formation in Trypanosoma brucei rhodesiense assessed as extracellular CYN level at 50 uM after 10 mins by UHPLC-MS/MS analysis. Type of data set: organism-based. Particulars: in vivo.
Data set [6] can be described thus: Induction of T(SH)2-CYN adduct formation by HPLC-MS analysis. Type of data set: physicochemical.
Data set [7] deals with Trypanosoma brucei rhodesiense. As to the kind of experiment: Reduction of T(SH)2 level in Trypanosoma brucei rhodesiense at 50 uM after 40 mins by UHPLC-MS/MS analysis. Type of data set: functional, organism-based.
The test system of data set [8] is Trypanosoma brucei rhodesiense. As to the kind of experiment: Induction of CYN-thiol adduct formation in Trypanosoma brucei rhodesiense assessed as T(S-CYN)2 bisadduct level at 50 uM after 5 mins by UHPLC-MS/MS analysis. Type of data set: organism-based. The conditions noted are these: in vivo.
Data set [9] relates to Trypanosoma brucei rhodesiense. Briefly: Induction of CYN-thiol adduct formation in Trypanosoma brucei rhodesiense assessed as extracellular CYN level at 50 uM after 40 mins by UHPLC-MS/MS analysis. Particulars: in vivo. Type of data set: organism-based.
For data set [10], the system named is Trypanosoma brucei. Briefly: Irreversible inhibition of trypanothione synthatase in Trypanosoma brucei using GSH as substrate at 200 uM after 240 mins.
Data set [11] relates to Trypanosoma brucei rhodesiense. Briefly: Inhibition of ornithine decarboxylase in Trypanosoma brucei rhodesiense STIB900 assessed as intracellular ornithine level at 50 uM after 20 mins (reference value: 4 +/- 1 uM). Type of data set: cell-based.
In data set [12] the test system is Trypanosoma brucei rhodesiense. Briefly: Induction of CYN-thiol adduct formation in Trypanosoma brucei rhodesiense assessed as extracellular CYN level at 50 uM after 20 mins by UHPLC-MS/MS analysis. The data set is classed as organism-based. The conditions noted are these: in vivo.
The subject of data set [13] is Trypanosoma brucei rhodesiense. Briefly: Induction of CYN-thiol adduct formation in Trypanosoma brucei rhodesiense assessed as intracellular CYN level at 50 uM after 5 mins by UHPLC-MS/MS analysis. The conditions noted are these: in vivo. The data set is classed as organism-based.
In data set [14] the test system is Trypanosoma brucei. As to the kind of experiment: Antitrypanosomal activity against Trypanosoma brucei assessed as stumpy phenotype at 50 uM after 40 mins by Giemsa staining-based light microscopy. Type of data set: functional, organism-based.
Another data set relates to Trypanosoma cruzi. Briefly: Inhibition of trypanothione reductase in Trypanosoma cruzi using T(S)2 as substrate at 100 to 200 uM after 240 mins by spectrophotometry in presence of NADPH.
Data set [15] concerns Trypanosoma brucei rhodesiense. Briefly: Induction of CYN-thiol adduct formation in Trypanosoma brucei rhodesiense assessed as GS-CYN monoadduct level at 50 uM after 5 mins by UHPLC-MS/MS analysis. The data set is classed as organism-based. Particulars: in vivo.
In data set [16] the test system is Trypanosoma brucei rhodesiense. As to the kind of experiment: Induction of CYN-thiol adduct formation in Trypanosoma brucei rhodesiense assessed as extracellular CYN level at 50 uM after 5 mins by UHPLC-MS/MS analysis. Type of data set: organism-based. The conditions noted are these: in vivo.
Data set [17] has as its system Trypanosoma brucei. As to the kind of experiment: Antitrypanosomal activity against Trypanosoma brucei assessed as intermediate phenotype at 50 uM after 5 to 10 mins by Giemsa staining-based light microscopy. The data set is classed as functional, organism-based.

SMILES strings stand for the structures. Activity calls are given as the source filed them. The calls are words filed in the database; no cut-off is given here.

By inhibition is commonly meant how much of the control response was suppressed.

`C=C(CO)C(=O)O[C@H]1CC(=C)[C@@H]2C[C@H](O)C(=C)[C@@H]2[C@H]2OC(=O)C(=C)[C@@H]21` [CYNAROPICRIN]: the Activity entry is “Active” in data set [1]; 33.3 µM in data set [2]; 39.6 µM in [5]; “Active” in data set [6]; 49 µM in data set [8]; 37.1 µM in data set [9]. Besides, the Activity worked out at 35.8 µM in data set [12], 23 µM in [13], 42 µM in [15] and 34.9 µM in [16]. For the same compound, the inhibition result in the data set on Trypanosoma brucei [3] and in the data set with Trypanosoma cruzi was “inactive” each time. The outcome (in data set [4]; in data set [7]; with Trypanosoma brucei [14]; in the data set on Trypanosoma brucei [17]) was Active. In the data set with Trypanosoma brucei [10], this compound returned an inhibition of 51%. Moreover, the INH in data set [11] was 50 µM.
Regarding `NCCCC(N)(C(=O)O)C(F)F` (centres undefined), the INH in data set [11] was determined as 48 µM.

These data come from ChEMBL document CHEMBL2439993, “Cynaropicrin targets the trypanothione redox system in Trypanosoma brucei” (Bioorg Med Chem, 2013).
